Read-outs that look alike come from different tables or passages of the source.
Key:
143B cells [1] = test: Cell proliferation; assay type: cell-based, human; conditions: antimycin, media containing high pyruvate and aspartate; versus wild-type cells
Description: Proliferation: 25,000 cells were seeded in 6-well dishes and counted on day 1 and day 5 on a Beckman Coulter Counter. Doubling times were calculated using the following equation: […]

DHODH = DHODH (Homo sapiens, UniProt Q02127); conditions: for de novo UTP biosynthesis (13C3-UTP generation, DHODH activity): wild-type 143B cells, 13C4-aspartate tracing 8 hours, 500 nM antimycin, 2 μM brequinar
DHODH, sequence (Q02127 whole entry): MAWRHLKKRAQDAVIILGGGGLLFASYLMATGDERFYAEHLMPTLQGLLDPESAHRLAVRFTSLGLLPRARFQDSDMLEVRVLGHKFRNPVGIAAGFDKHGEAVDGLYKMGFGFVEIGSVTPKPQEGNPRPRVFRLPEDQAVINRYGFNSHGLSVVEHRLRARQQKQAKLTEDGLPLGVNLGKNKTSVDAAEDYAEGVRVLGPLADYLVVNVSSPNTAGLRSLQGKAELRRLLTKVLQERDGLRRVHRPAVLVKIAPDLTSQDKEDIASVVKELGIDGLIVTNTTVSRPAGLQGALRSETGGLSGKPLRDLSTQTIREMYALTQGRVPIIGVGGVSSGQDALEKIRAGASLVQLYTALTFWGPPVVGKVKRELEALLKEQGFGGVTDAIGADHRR
Description: Isolation of metabolites from adherent cells: To isolate metabolites, media was removed, cells were washed 2 times with ice cold 1×PBS, and wells were covered in LC-MS grade 80:20 Methanol:Water (ThermoFisher). Plates were scraped on dry ice and lysates were collected into eppendorf tubes. Lysates were vortexed for 10 minutes at 4° C. and centrifuged at 16,000×g for 10 minutes at 4° C. Supernatants were immediately dried down in a Refrigerated CentriVap Benchtop Vacuum Concentrator connected to a CentriVap-105 Cold Trap (Labconco). Dried pellets were stored at −80° C. until they were run on LC-MS.
Liquid Chromatography and Mass Spectrometry (polar): A QExactive bench top orbitrap mass spectrometer equipped with an Ion Max source and a HESI II probe coupled to a Dionex UltiMate 3000 HPLC system (Thermo Fisher Scientific) was used to perform all LC-MS experiments. The instrument underwent mass calibration using the standard calibration mixture every 7 days. 2 μL of re-suspended polar metabolite samples were injected onto a SeQuant ZIC-pHILIC 5 μm 150×2.1 mm analytical column equipped with a 2.1×20 mm guard column (MilliporeSigma). The column oven was held at 25° C. and the autosampler tray was held at 4° C. Buffer A was comprised of 20 mM ammonium carbonate, 0.1% ammonium hydroxide. Buffer B was comprised of 100% acetonitrile. The chromatographic gradient was run at a flow rate of 0.150 mL/min as follows: 0-20 min: linear gradient from 80-20% B; 20-20.5 min: linear gradient from 20-80% B; 20.5-28 min: hold at 80% B. The mass spectrometer was operated in full-scan, polarity-switching mode, with the spray voltage set to 3.0 kV, the heated capillary at 275° C., and the HESI probe at 350° C. The sheath gas flow was 40 units, the auxiliary gas flow was 15 units, and the sweep gas flow was 1 unit. MS data was collected in a range of m/z=70-1000. The resolution set at 70,000, the AGC target at 1×106, and the maximum injection time at 20 msec. An additional scan (m/z=220-700) was included in negative mode only to enhance detection of nucleotides.

[2] = test system: mitochondrial membrane potential; test: Mitochondrial membrane potential (TMRE dye); assay type: cell-based, human
Description: Live Cell Imaging: 143B cells were seeded at 50% density in 6-well dishes 24 hours prior to the experiment. Cells were pre-incubated with 500 nM TMRE dye for 30 minutes and then imaging on a Nikon TE2000 inverted microscope was started. Images were taken at 1 minute intervals over the course of an hour in the mCherry channel while the plate was incubated in a chamber maintaining a temperature of 37° C. and 5% CO2.
Flow Cytometry: Cells were seeded 24 hours prior to the experiment at 50% density. On the day of the experiment, the cells were treated for the designated time with inhibitors. 30 minutes prior to the end of the incubation, 500 nM TMRE dye was added to the wells. Following incubation cells were washed, trypsinized, and filtered through a cell strainer prior to sorting. Fluorescence-activated cell sorting was performed on a LSR-II sorter, in which the fluorescence intensity of individual cells was quantified in the PE channel. Data were analyzed using FlowJo software (TreeStar).

[3] = test system: SW1353, U87, DLD1, HCT116, C2C12, primary dermal fibroblasts, Mink lung epithelial cells; test: Fumarate reduction in a panel of other cell lines; assay type: cell-based; conditions: other human cancer cell lines
Description: Stable isotope tracing in cells: Cells were seeded 24 hours prior to the experiment in 6-well dishes at 70% density. For stable isotope tracing of glutamine, glutamine-free DMEM (ThermoFisher) was supplemented with 2 mM ^13C5^15N2-glutamine (Sigma), 1 mM pyruvate, 5% FBS, 1% P/S, 0.1 mg/mL uridine. For stable isotope tracing of aspartate, DMEM containing 5% FBS, and 1% penicillin and streptomycin, and 0.1 mg/mL uridine (Sigma) was supplemented with the designated amount of 13C4-aspartate (Sigma) and the pH adjusted to 7.4. Uridine was left out of the media for stable isotope tracing experiments measuring nucleotide biosynthesis. Unless otherwise stated, for all experiments, cells were treated for 8 hours and metabolites were isolated as described below. Relevant compounds were added at the start of the incubation periods.

complex 1 and DHODH = test: Proliferation of WT and RquA cells in media without pyruvate or uridine; assay type: cell-based; conditions: media − pyruvate, − uridine
Description: Proliferation of WT and RquA cells in media that forces cells to use maximal complex 1 activity (− pyruvate) and maximal DHODH activity (− uridine). Complex 1 and DHODH are enzymes in the ETC that require an electron carrier (classically UQ) to catalyze their function. […] Rotenone was used as a control and inhibits complex 1 activity. Brequinar was used as a control and inhibits DHODH activity.

[4] = test system: kidney derived cancer cell line; test: Western blot of kidney derived cancer cell line cultured in hypoxia (NRF2, PDH phosphorylation); assay type: cell-based; conditions: hypoxia for 5 days
Description: This includes NRF2 accumulation, which is a sensor of oxidative stress, and phosphorylation on PDH, which is a marker of AMPK activation. AMPK senses AMP, and is hyperactive when cells have “low energy”
Western Blots: Adherent cells were lysed in RIPA buffer (150 mM NaCl, 50 mM Tris-HCl, pH 7.5, 0.1% SDS, 1% Triton-X 100 (Sigma), 0.5% deoxycholate (Sigma), complete EDTA-free protease inhibitor (Sigma)) and clarified by centrifugation. Protein content was quantified using a Pierce BCA Protein Assay Kit (Life Technologies) and 30-50 μg protein were loaded on 12% Tris-Glycine Novex Gels (Invitrogen). Proteins were subsequently transferred to a 0.45 μm PVDF membrane (Sigma). Primary antibodies were used at the following dilutions in 5% BSA:SDHA (Proteintech; 1:1000), NDUFV1 (Abcam; 1:1000), Total OXPHOS Rodent WB Antibody Cocktail-containing UQCRC2, SDHB, and ATP5A (Abcam; 1:1000), COX IV (Cell Signaling Technology; 1:1000), MT-ND5 (Abcam; 1:1000), FLAG (Sigma; 1:1000), HIF1a (Cell Signaling Technology; 1:1000), ATP citrate lyase (Abcam; 1:1000), Citrate Synthase (Cell Signaling; 1:1000). Secondary antibodies were used at the following dilutions in 5% Milk:Anti-rabbit IgG HRP-linked Antibody (1:5000, Cell Signaling Technology), Anti-mouse IgG HRP-linked Antibody (1:5000, Cell Signaling Technology). […]

143B cells [5] = test: 14C-palmitate degradation radioactivity assay (fatty acid oxidation); assay type: cell-based, human; conditions: WT (UQ-containing) versus RquA (RQ-containing) 143B cells
Description: Radioactivity assay to monitor 14C-palmitate degradation in WT (UQ-containing) and RquA (RQ-containing) 143B cells.

Substance	proliferation of SDHB-null cells (143B cells [1])	DHODH activity (13C3-UTP production) (DHODH)	DHODH activity (13C4-aspartate into 13C3-UTP) (DHODH; combined inhibition of complex III with antimycin and complex I with piericidin)	de novo UTP biosynthesis (13C3-UTP generation, DHODH activity) (DHODH)	de novo UTP biosynthesis (13C3-UTP generation, DHODH activity) (DHODH; listed as Antimycin)	mitochondrial membrane potential (ΔΨMito) ([2]; SDHB-null cells versus wild-type cells, 30 minutes of antimycin treatment)	mitochondrial membrane potential (ΔΨMito) ([2]; wild-type cells, time course after antimycin)	fumarate reduction [3]	support of complex 1 and DHODH activities (proliferation) (complex 1 and DHODH)	oxidative and bioenergetic stresses (NRF2 accumulation, phosphorylation on PDH) [4]	fatty acid oxidation (14C-palmitate degradation) (143B cells [5])
antimycin	less than wild-type cells treated with antimycin	ablated	no effect	did not decrease	no effect	substantially more depolarized	initial reduction in the ΔΨ^Mito, which was restored to pre-treatment levels	increased	–	–	–
rhodoquinone	–	–	–	–	–	–	–	–	can carry electrons in the ETC and support complex 1 and DHODH activities	protects against oxidative and bioenergetic stresses	drives lower fatty acid oxidation
